From ChEMBL document CHEMBL1141727, “Isolation and cytotoxic evaluation of marine sponge-derived norterpene peroxides” (J Nat Prod, 1998)

Assays:
Assay type in all cases: functional
[1] = tested on: OVCAR-3; experiment: Growth inhibition of human OVCAR-3 cells
[2] = tested on: P388; experiment: Growth inhibition of mouse P388 cells assessed as zone units at 50 ug/disk by disk diffusion agar colony formation assay
[3] = tested on: HOP-62; experiment: Growth inhibition of human HOP62 cells
[4] = tested on: HCC 2998; experiment: Growth inhibition of human HCC2998 cells
[5] = Growth inhibition of mouse M17/ADR cells assessed as zone units at 50 ug/disk by disk diffusion agar colony formation assay
[6] = tested on: EKVX; experiment: Growth inhibition of human EKVX cells
[7] = tested on: M14; experiment: Growth inhibition of human M14 cells
[8] = tested on: SN12C; experiment: Growth inhibition of human SN12C cells
[9] = tested on: UACC-62; experiment: Growth inhibition of human UACC62 cells
[10] = tested on: ACHN; experiment: Growth inhibition of human ACHN cells
[11] = tested on: NCI-H226; experiment: Growth inhibition of human NCI-H226 cells
[12] = tested on: A498; experiment: Growth inhibition of human A498 cells
[13] = tested on: OVCAR-4; experiment: Growth inhibition of human OVCAR4 cells
[14] = tested on: NCI-H522; experiment: Growth inhibition of human NCI-H522 cells
[15] = tested on: MOLT-4; experiment: Growth inhibition of human MOLT4 cells
[16] = tested on: NCI-H460; experiment: Growth inhibition of human NCI-H460 cells
[17] = tested on: MDA-MB-435; experiment: Growth inhibition of human MDA-MB-435 cells
[18] = tested on: U-251; experiment: Growth inhibition of human U251 cells
[19] = tested on: SK-OV-3; experiment: Growth inhibition of human SKOV3 cells
[20] = tested on: BT-549; experiment: Growth inhibition of human BT549 cells
[21] = tested on: HCT-15; experiment: Growth inhibition of human HCT15 cells
[22] = tested on: CAKI-1; experiment: Growth inhibition of human Caki1 cells
[23] = tested on: HT-29; experiment: Growth inhibition of human HT-29 cells
[24] = tested on: CCRF-CEM; experiment: Growth inhibition of human CCRF-CEM cells
[25] = Growth inhibition of human MCF7/ADR resistant cells; details: NCI/ADR-RES
[26] = tested on: A549; experiment: Growth inhibition of human A549 cells
[27] = tested on: DU-145; experiment: Growth inhibition of human DU145 cells
[28] = tested on: RXF 393; experiment: Growth inhibition of human […] cells
[29] = tested on: NCI-H23; experiment: Growth inhibition of human NCI-H23 cells
[30] = tested on: SK-MEL-28; experiment: Growth inhibition of human SK-MEL-28 cells
[31] = tested on: SW-620; experiment: Growth inhibition of human SW620 cells
[32] = tested on: HCT-116; experiment: Growth inhibition of human HCT116 cells
[33] = tested on: Malme-3M; experiment: Growth inhibition of human MALME-3M cells
[34] = tested on: UO-31; experiment: Growth inhibition of human UO31 cells
[35] = tested on: OVCAR-8; experiment: Growth inhibition of human OVCAR8 cells
[36] = tested on: HOP-92; experiment: Growth inhibition of human HOP92 cells
[37] = tested on: MDA-MB-231; experiment: Growth inhibition of human MDA-MB-231 cells
[38] = tested on: SK-MEL-2; experiment: Growth inhibition of human SK-MEL-2 cells
[39] = tested on: COLO 205; experiment: Growth inhibition of human COLO205 cells
[40] = tested on: MCF7; experiment: Growth inhibition of human MCF7 cells
[41] = tested on: SR; experiment: Growth inhibition of human SR cells
[42] = tested on: HL-60(TB); experiment: Growth inhibition of human HL-60(TB) cells
[43] = tested on: T47D; experiment: Growth inhibition of human T47D cells
[44] = tested on: CX-1; experiment: Growth inhibition of human CX-1 cells assessed as zone units at 50 ug/disk by disk diffusion agar colony formation assay
[45] = tested on: SNB-75; experiment: Growth inhibition of human SNB75 cells
[46] = tested on: SK-MEL-5; experiment: Growth inhibition of human SK-MEL-5 cells
[47] = tested on: KM12; experiment: Growth inhibition of human KM12 cells
[48] = tested on: SF-539; experiment: Growth inhibition of human SF539 cells
[49] = tested on: OVCAR-5; experiment: Growth inhibition of human OVCAR5 cells
[50] = Growth inhibition of human […] cells
[51] = tested on: SF-295; experiment: Growth inhibition of human SF295 cells
[52] = tested on: 786-0; experiment: Growth inhibition of human 786-0 cells
[53] = Growth inhibition of human Hs 578T cells
[54] = tested on: L1210; experiment: Growth inhibition of mouse L1210 cells assessed as zone units at 50 ug/disk by disk diffusion agar colony formation assay
[55] = tested on: MDA-N; experiment: Growth inhibition of human MDA-N cells
[56] = tested on: IGROV-1; experiment: Growth inhibition of human IGROV1 cells
[57] = tested on: UACC-257; experiment: Growth inhibition of human UACC257 cells
[58] = tested on: PO3; experiment: Growth inhibition of mouse PO3 cells assessed as zone units at 50 ug/disk by disk diffusion agar colony formation assay
[59] = tested on: NCI-H322M; experiment: Growth inhibition of human NCI-H322M cells

C=C1CCC[C@H]2[C@](C)(CCC(C)=O)[C@@H](C)CC[C@]12C
GI50 [1]: > 15 µM
Activity [2]: 0 Zone units
GI50 [3]: > 15 µM
GI50 [4]: > 15 µM
Activity [5]: 0 Zone units
GI50 [6]: > 15 µM
GI50 [7]: > 15 µM
GI50 [8]: > 15 µM
GI50 [9]: > 15 µM
GI50 [10]: > 15 µM
GI50 [11]: > 15 µM
GI50 [12]: > 15 µM
GI50 [13]: > 15 µM
GI50 [14]: > 15 µM
GI50 [15]: > 15 µM
GI50 [16]: > 15 µM
GI50 [17]: > 15 µM
GI50 [18]: > 15 µM
GI50 [19]: > 15 µM
GI50 [20]: > 15 µM
GI50 [21]: > 15 µM
GI50 [22]: > 15 µM
GI50 [23]: > 15 µM
GI50 [24]: > 15 µM
GI50 [25]: > 15 µM
GI50 [26]: > 15 µM
GI50 [27]: > 15 µM
GI50 [28]: > 15 µM
GI50 [29]: > 15 µM
GI50 [30]: > 15 µM
GI50 [31]: > 15 µM
GI50 [32]: > 15 µM
GI50 [33]: > 15 µM
GI50 [34]: > 15 µM
GI50 [35]: > 15 µM
GI50 [36]: > 15 µM
GI50 [37]: > 15 µM
GI50 [38]: > 15 µM
GI50 [39]: > 15 µM
GI50 [40]: > 15 µM
GI50 [41]: > 15 µM
GI50 [42]: > 15 µM
GI50 [43]: > 15 µM
Activity [44]: 100 Zone units
GI50 [45]: 3.02 µM
GI50 [46]: > 15 µM
GI50 [47]: > 15 µM
GI50 [48]: > 15 µM
GI50 [49]: > 15 µM
GI50 [50]: > 15 µM
GI50 [51]: > 15 µM
GI50 [52]: > 15 µM
GI50 [53]: > 15 µM
Activity [54]: 0 Zone units
GI50 [55]: > 15 µM
GI50 [56]: > 15 µM
GI50 [57]: > 15 µM
Activity [58]: 0 Zone units
GI50 [59]: > 15 µM
